Laboratory results taken from US8835466B2, “Synthesis and uses of pyroglutamic acid derivatives” (Prodimed, S.A., priority 2006, dated 2014).

System: ASB XIV cells (pulmonary squamous cell carcinoma)
Assay: Effect of isomers and BLAS on in vivo tumour growth, ASB XIV tumours (Example 8)
Parameters: species or system Balb/c mice
Settings: for Inhibition of the in vivo growth of the lung carcinoma ASB XIV, in words: 260 ng i.p. days 6, 7 and 14; for Tumour surface, overall values (Mean) / Tumour surface, overall values (Median) / Tumour volume, overall values (Mean) / Tumour volume, overall values (Median): 260 ng/mouse i.p. days 6, 7 and 14; for Differences in ASB XIV tumour growth rate vs. placebo, statistical significance p (Mann-Whitney U test): either in surface or volume, all days scored after the day 26th
Text: This assay was made in order to compare the effect of each stereoisomer on in vivo tumour growth in mice with the effect of the mixture of all of them challenged with ASB XIV tumours. The stereoisomers assayed were the same as in example 7 above plus a mixture of all of them (BLAS). The equipment (when needed), reagents, dose, vehicle and route and volume of administration were the same as in example 7.
ASB XIV is a pulmonary squamous cell carcinoma originated in Balb/c mouse strain, and therefore syngeneic in mice with Balb/c genetic background.
ASB XIV cells (CLS, Eppelheim, Germany) were maintained in vitro by serial passages every 3-4 days. Cultures were performed with RPMI medium medium (RPMI, 10% foetal calf serum, 2 mM L-glutamine, non essential aminoacids, 1 mM sodium pyruvate, 20 mM HEPES, 80 μg/mL gentamycin; all of them were purchased from Sigma, St. Louis, Mo., USA) by seeding 5×10^6 cells onto 75 cm^2 culture flasks. Tumour cells collected from 48 hour cultures upon trypsinization (Sigma, St. Louis, Mo., USA) were used as source of ASB XIV cells in the present example.
• BLAS (mixture of isomers 1, 2, 3 and 4) at a concentration of 65 μg/mL in sterile physiological saline. Isomer 1 (9b) at a concentration of 65 μg/mL in sterile physiological saline. • Isomer 2 (9c) at a concentration of 65 μg/mL in sterile physiological saline. • Isomer 3 (9a) at a concentration of 65 μg/mL in sterile physiological saline. • Isomer 4 (9d) at a concentration of 65 μg/mL in sterile physiological saline. Placebo
Tumours were established by subcutaneous inoculation in the right hind flank. Mice (Balb/c) were inoculated with 0.2 mL containing 2×10^5 viable ASB XIV cells. The day of subcutaneous inoculation will be considered Day 0 of the test.
Mice were observed daily and the tumour size recorded twice a week. This was carried out by measuring two perpendicular diameters (d1/d2) with a calliper. These measures were used to obtain both tumour surface and volume: Tumour surface=d1×d2(mm^2) Tumour volume=d1×d2^2×½(mm^3)
Results were expressed as single values and/or as the mean±SD or median from each experimental group.
A case-control study was performed with treated and control mice in order to determine whether differences between BLAS or each diferent stereoisomer and administration of placebo were present. […] The U-test of Mann Withney was chosen for being one of the better known non-parametrical tests, anyway, results for this test are equivalent both to those of Wilcoxon's sum of ranges and Kruskal-Wallis two-groups test.
Due to the high dispersion of data, outlayers (animals beyond percentile 10 or above percentile 90 for tumour surface at day 33) were excluded of the study.

[1] = day 12 after tumour inoculation
[2] = day 15 after tumour inoculation
[3] = day 19 after tumour inoculation
[4] = day 22 after tumour inoculation
[5] = day 26 after tumour inoculation
[6] = day 29 after tumour inoculation
[7] = day 33 after tumour inoculation

Structure (SMILES) | Tumour surface, overall values (Mean) (day 0 after tumour inoculation) | Tumour surface, overall values (Median) (day 0 after tumour inoculation) | Tumour volume, overall values (Mean) (day 0 after tumour inoculation) | Tumour volume, overall values (Median) (day 0 after tumour inoculation) | Tumour surface, overall values (Mean) (day 8 after tumour inoculation) | Tumour surface, overall values (Median) (day 8 after tumour inoculation) | Tumour volume, overall values (Mean) (day 8 after tumour inoculation) | Tumour volume, overall values (Median) (day 8 after tumour inoculation) | Tumour surface, overall values (Mean) [1] | Tumour surface, overall values (Median) [1] | Tumour volume, overall values (Mean) [1] | Tumour volume, overall values (Median) [1] | Tumour surface, overall values (Mean) [2] | Tumour surface, overall values (Median) [2] | Tumour volume, overall values (Mean) [2] | Tumour volume, overall values (Median) [2] | Tumour surface, overall values (Mean) [3] | Tumour surface, overall values (Median) [3] | Tumour volume, overall values (Mean) [3] | Tumour surface, overall values (Mean) [4] | further results
Br.N[C@]1(C[n+]2ccccc2)C[C@@H](C(=O)O)NC1=O.[Br-] (single isomer, unassigned; isomer 3) [isomer 3, 3S,5S-1-(3-Amino-5-carboxy-2-oxopyrrolidin-3-ylmethyl)pyridinium bromide hidrobromide] | 0 mm^2 | 0 mm^2 | 0 mm^3 | 0 mm^3 | 0 mm^2 | 0 mm^2 | 0 mm^3 | 0 mm^3 | 0.29 mm^2 | 0 mm^2 | 0.44 mm^3 | 0 mm^3 | 2.81 mm^2 | 0 mm^2 | 6.31 mm^3 | 0 mm^3 | 15.16 mm^2 | 9 mm^2 | 44.13 mm^3 | 33.16 mm^2 | Inhibition of the in vivo growth of the lung carcinoma ASB XIV, in words: inhibit the in vivo growth; Tumour volume, overall values (Median) [3]: 13.5 mm^3; Tumour surface, overall values (Median) [4]: 25 mm^2; Tumour volume, overall values (Mean) [4]: 116.65 mm^3; Tumour volume, overall values (Median) [4]: 62.5 mm^3; Tumour surface, overall values (Mean) [5]: 68.67 mm^2; Tumour surface, overall values (Median) [5]: 64 mm^2; Tumour volume, overall values (Mean) [5]: 337.18 mm^3; Tumour volume, overall values (Median) [5]: 256 mm^3; Tumour surface, overall values (Mean) [6]: 94.61 mm^2; Tumour surface, overall values (Median) [6]: 99 mm^2; Tumour volume, overall values (Mean) [6]: 529.37 mm^3; Tumour volume, overall values (Median) [6]: 445.5 mm^3; Tumour surface, overall values (Mean) [7]: 131.35 mm^2; Tumour surface, overall values (Median) [7]: 140 mm^2; Tumour volume, overall values (Mean) [7]: 848.87 mm^3; Tumour volume, overall values (Median) [7]: 700 mm^3; Differences in ASB XIV tumour growth rate vs. placebo, statistical significance p (Mann-Whitney U test): < 0.05
Br.N[C@@]1(C[n+]2ccccc2)C[C@H](C(=O)O)NC1=O.[Br-] (single isomer, unassigned; isomer 2) [isomer 2, 3R,5R-1-(3-Amino-5-carboxy-2-oxopyrrolidin-3-ylmethyl)pyridinium bromide hidrobromide] | 0 mm^2 | 0 mm^2 | 0 mm^3 | 0 mm^3 | 0 mm^2 | 0 mm^2 | 0 mm^3 | 0 mm^3 | 0.71 mm^2 | 0 mm^2 | 1 mm^3 | 0 mm^3 | 6.19 mm^2 | 0 mm^2 | 12.68 mm^3 | 0 mm^3 | 29.84 mm^2 | 25 mm^2 | 102.44 mm^3 | 63.55 mm^2 | Tumour volume, overall values (Median) [3]: 62.5 mm^3; Tumour surface, overall values (Median) [4]: 56 mm^2; Tumour volume, overall values (Mean) [4]: 292.39 mm^3; Tumour volume, overall values (Median) [4]: 196 mm^3; Tumour surface, overall values (Mean) [5]: 105.97 mm^2; Tumour surface, overall values (Median) [5]: 110 mm^2; Tumour volume, overall values (Mean) [5]: 603.66 mm^3; Tumour volume, overall values (Median) [5]: 550 mm^3; Tumour surface, overall values (Mean) [6]: 142.45 mm^2; Tumour surface, overall values (Median) [6]: 144 mm^2; Tumour volume, overall values (Mean) [6]: 913.90 mm^3; Tumour volume, overall values (Median) [6]: 864 mm^3; Tumour surface, overall values (Mean) [7]: 188.87 mm^2; Tumour surface, overall values (Median) [7]: 210 mm^2; Tumour volume, overall values (Mean) [7]: 1377.02 mm^3; Tumour volume, overall values (Median) [7]: 1436.5 mm^3
Br.N[C@]1(C[n+]2ccccc2)C[C@H](C(=O)O)NC1=O.[Br-] (single isomer, unassigned; isomer 4) [isomer 4, 3S,5R-1-(3-Amino-5-carboxy-2-oxopyrrolidin-3-ylmethyl)pyridinium bromide hidrobromide] | 0 mm^2 | 0 mm^2 | 0 mm^3 | 0 mm^3 | 0 mm^2 | 0 mm^2 | 0 mm^3 | 0 mm^3 | 0.17 mm^2 | 0 mm^2 | 0.16 mm^3 | 0 mm^3 | 2.79 mm^2 | 0 mm^2 | 5.29 mm^3 | 0 mm^3 | 14.59 mm^2 | 9 mm^2 | 36.5 mm^3 | 34.52 mm^2 | Inhibition of the in vivo growth of the lung carcinoma ASB XIV, in words: inhibit the in vivo growth; Tumour volume, overall values (Mean) [4]: 118.19 mm^3; Tumour surface, overall values (Mean) [5]: 65.86 mm^2; Tumour surface, overall values (Median) [5]: 49 mm^2; Tumour volume, overall values (Mean) [5]: 297.83 mm^3; Tumour volume, overall values (Median) [5]: 171.5 mm^3; Tumour surface, overall values (Mean) [6]: 90.28 mm^2; Tumour surface, overall values (Median) [6]: 81 mm^2; Tumour volume, overall values (Mean) [6]: 451.55 mm^3; Tumour volume, overall values (Median) [6]: 364.5 mm^3; Tumour surface, overall values (Mean) [7]: 123.45 mm^2; Tumour surface, overall values (Median) [7]: 110 mm^2; Tumour volume, overall values (Mean) [7]: 700.66 mm^3; Tumour volume, overall values (Median) [7]: 550 mm^3; Differences in ASB XIV tumour growth rate vs. placebo, statistical significance p (Mann-Whitney U test): < 0.05
Br.N[C@@]1(C[n+]2ccccc2)C[C@@H](C(=O)O)NC1=O.[Br-] (single isomer, unassigned; isomer 1) [isomer 1, 3R,5S-1-(3-Amino-5-carboxy-2-oxopyrrolidin-3-ylmethyl)pyridinium bromide hidrobromide] | 0 mm^2 | 0 mm^2 | 0 mm^3 | 0 mm^3 | 0 mm^2 | 0 mm^2 | 0 mm^3 | 0 mm^3 | 0.32 mm^2 | 0 mm^2 | 0.45 mm^3 | 0 mm^3 | 3.45 mm^2 | 0 mm^2 | 5.34 mm^3 | 0 mm^3 | 19.65 mm^2 | 16 mm^2 | 53.37 mm^3 | 46.81 mm^2 | Tumour volume, overall values (Median) [3]: 32 mm^3; Tumour volume, overall values (Mean) [4]: 179.79 mm^3; Tumour surface, overall values (Mean) [5]: 92.52 mm^2; Tumour surface, overall values (Median) [5]: 72 mm^2; Tumour volume, overall values (Mean) [5]: 474.10 mm^3; Tumour volume, overall values (Median) [5]: 288 mm^3; Tumour surface, overall values (Mean) [6]: 125.16 mm^2; Tumour surface, overall values (Median) [6]: 110 mm^2; Tumour volume, overall values (Mean) [6]: 733.26 mm^3; Tumour volume, overall values (Median) [6]: 550 mm^3; Tumour surface, overall values (Mean) [7]: 165.65 mm^2; Tumour surface, overall values (Median) [7]: 154 mm^2; Tumour volume, overall values (Mean) [7]: 1114.37 mm^3; Tumour volume, overall values (Median) [7]: 864 mm^3
